The results in this text go back to US20030044413A1, “Methods of limiting apoptosis of cells” (Regents of the University of Minnesota, priority 1998, published 2003).

Like-named read-outs stand apart in the source and are kept apart here.

One assay concerns Bax. The assay can be described thus: Bax translocation from cytosol to mitochondria in rat hepatocytes. The following applies: preincubation with UDCA. The format is cell-based. On the procedure:
(§1) Isolation of cytosol and mitochondrial fractions and determination of cytochrome c and Bax content. Freshly isolated rat hepatocytes were cultured for 3 hours as described above and then incubated with William's medium supplemented with either 50 μM of DCA for 4 h, 1 nM TGF-β1 for 24 h and […] okadaic acid for 16 h, in the presence or absence of 100 μM UDCA, or no addition (control). Time-course experiments were also performed. Cells (1.0×10^7/ml) were harvested by centrifugation at 600×g for 5 min at 4° C. The cell pellets were washed once in ice-cold PBS and resuspended with 3 volumes of isolation buffer containing 20 mM Hepes-KOH, pH 7.5, 10 mM KCl, 1.5 mM MgCl2, 1 mM sodium EDTA, 1 mM sodium EGTA, 1 mM dithiothreitol (DTT), suplemmented with the COMPLETE protease inhibitor cocktail (Boehringer Mannheim Biochemicals, Inc., Indianapolis, Ind.) in 250 mM sucrose. After chiling on ice for 15 min, the cells were disrupted by 40 stokes of a glass homogeneizer and the homogenates were centrifuged twice at 2,500×g for 10 min at 4° C. to remove unbroken cells and nuclei. The mitochondria were pelleted by centrifugation at 12,000×g for 30 min at 4° C., resuspended in isolation buffer containing 250 mM sucrose and frozen at −80° C. […]

The test system of another assay is cytochrome c. The assay is described as follows: Cytochrome c content of cytosol and mitochondria of rat hepatocytes. It is filed as cell-based. Conditions: Hepatocyte, hepatocytes with DCA, TGF-β1 or okadaic acid, 100 μM UDCA. On the procedure: as §1

Usually inhibition stands for the drop in the measured response relative to a control, in per cent. `C[C@H](CCC(=O)O)[C@H]1CC[C@H]2[C@@H]3[C@@H](O)C[C@@H]4C[C@H](O)CC[C@]4(C)[C@H]3CC[C@]12C` [UDCA, ursodeoxycholic acid]: the “prevention of Bax translocation” value in the assay on Bax came to 45%. Also, the inhibition at 100 µM worked out at 70% with cytochrome c (read-out: inhibition of cytochrome c depletion from the mitochondria) and 60% in the assay on cytochrome c (read-out: inhibition of cytochrome c release to the cytosol).
